The nature of the data set: method code SF-AS, from DOI: 10.1002/jps.2600800814, PMID: 1791539.
Consider `CCCCc1nc(C#N)c(C#N)nc1Cl`, for which the logP (as a rule, a log measure of how a compound divides between an organic and an aqueous phase) was 2.89.
Regarding `Cc1cnc(C)c(C)n1`, the logP is 0.95.
The value for `COc1cncc(N(C)C)n1` was 1.99; that for `CCOC(=O)c1cncc(C)n1` was 0.51.
`COc1cncc(N)n1`: the logP amounted to 0.73.
`N#Cc1ncc(Cl)nc1C#N` had a log partition coefficient (logP) of 0.95.
`Cc1cncc(N(C)C)n1` had a lipophilicity (logP) of 1.57.
With `Cc1nc(C#N)c(C#N)nc1Cl`, the logP was determined as 1.29.
`CCOC(=O)c1cncc(OC)n1` came in with a logP of 1.2.
`CCc1nccnc1OC` came in with a logP of 1.8.
As to `Nc1cnc(Cl)cn1`, the log partition coefficient (logP) was found to be 0.67.
With `CCCc1nccnc1C`, the logP turned out to be 1.57.
In turn, `NC(=O)c1cncc(Cl)n1` displayed a logP of 0.28.
The compound `CCCCc1nc(C#N)c(C#N)nc1C` registered a lipophilicity (logP) of 2.3.
With `Cc1cncc(C#N)n1`, the logP worked out at 0.44.
With `CCOc1cncc(OCC)n1`, the logP stood at 2.55.
`CCc1ncc(C)nc1CC` showed a lipophilicity (logP) of 1.95.
Consider `Cc1nccnc1C`, for which the lipophilicity (logP) turned out to be 0.54.
`CCCCc1nccnc1C` yielded a logP of 2.1.
With `COc1cnc(N(C)C)cn1`, the log partition coefficient (logP) was 1.65.
As for `Cc1cncc(C(N)=O)n1`, the log partition coefficient (logP) is -0.13.
The result for `COC(=O)c1cncc(OC)n1` reads 0.69; that for `COc1cncc(NC(C)=O)n1`, 0.82.
Compound `CCc1nc(C#N)c(C#N)nc1Cl` gave a logP of 1.79.
For the compound `COc1cnc(OC)cn1`, the logP was 1.14.
`CCOc1cncc(OC)n1` yielded a logP of 1.98.
As for `Cc1cncc(N)n1`, the logP is 0.35.
Compound `Cc1nc(C)c(C)nc1C` gave a log partition coefficient (logP) of 1.28.
For `COC(=O)c1cncc(C)n1`, the log partition coefficient (logP) stood at 0.1.
The result for `N#Cc1nccnc1C#N` reads 0.38; that for `Cc1nccnc1OC(C)C`, 2.24; that for `COc1cncc(C)n1`, 1.29.
With `Cc1cnc(C#N)cn1`, the logP came out at 0.26.
`CCCOc1cncc(Cl)n1` came in with a logP of 2.71.
The result for `COc1cncc(C(N)=O)n1` reads 0.13; that for `Cc1cncc(C)n1`, 0.54; that for `COc1nccnc1C`, 1.24.
In the case of `CSc1nccnc1C`, the logP was found to be 1.81.
For `CC(=O)Nc1cnc(Cl)cn1`, the logP was 0.56.
In the case of `Clc1cnc(Cl)cn1`, the log partition coefficient (logP) was 1.58.
The compound `CCOC(=O)c1cncc(N(C)C)n1` came in with a logP of 1.24.
Take `Nc1cncc(Cl)n1`: the log partition coefficient (logP) worked out at 0.95.
Compound `CN(C)c1cncc(Cl)n1` registered a logP of 1.95.
Compound `CN(C)c1cncc(C(N)=O)n1` displayed a logP of 0.38.
Compound `COC(=O)c1cncc(N(C)C)n1` registered a logP of 0.9.
For `COC(=O)c1nccnc1C(=O)OC`, the lipophilicity (logP) was -0.02.
As to `CC(=O)Nc1cncc(C)n1`, the logP was 0.38.
The result for `Fc1cncc(F)n1` reads 0.74; that for `Fc1cncc(Cl)n1`, 1.15; that for `Cc1cnc(C(N)=O)cn1`, -0.25.
The result for `COC(=O)c1cnc(C)cn1` reads 0.17.
Consider `Clc1cncc(Cl)n1`, for which the logP worked out at 1.53.
`CCOc1nccnc1C` registered a logP of 1.82.
In turn, `CN(C)c1cncc(C#N)n1` returned a logP of 1.12.
The compound `COC(=O)c1cncc(Cl)n1` came in with a lipophilicity (logP) of 0.47.
Compound `CCc1nccnc1CC` displayed a log partition coefficient (logP) of 1.51.
For `Cc1cncc(Cl)n1`, the log partition coefficient (logP) is 1.03.
Compound `CCOc1cncc(C(N)=O)n1` yielded a logP of 0.61.
As to `CC(=O)Nc1cncc(Cl)n1`, the logP is 1.1.
In the case of `COc1cncc(C#N)n1`, the logP is 0.95.
`COc1cncc(OC)n1` registered a logP of 1.58.
`Nc1cncc(N)n1` displayed a logP of -0.45.
With `COc1cnc(Cl)cn1`, the logP is 1.52.
In turn, `N#Cc1cncc(Cl)n1` came in with a lipophilicity (logP) of 0.79.
In turn, `COc1cncc(Cl)n1` displayed a lipophilicity (logP) of 1.65.
Take `CCc1nccnc1C`: the log partition coefficient (logP) was found to be 1.07.
`CCOc1cnc(Cl)cn1` registered a log partition coefficient (logP) of 1.99.
The value for `COc1cnc(N)cn1` was 0.63; that for `CCOC(=O)c1nccnc1C(=O)OCC` was 0.65.
In turn, `CCOc1cncc(Cl)n1` yielded a logP of 2.22.
Compound `Cc1cnc(C)c(Cl)n1` gave a lipophilicity (logP) of 1.5.
The compound `Cc1cnc(Cl)cn1` returned a logP of 1.08.
`CN(C)c1cnc(Cl)cn1` returned a logP of 1.7.
The compound `CCOC(=O)c1cnc(C)cn1` displayed a logP of 0.61.

The values above are taken from the SangsterLogP compilation.
